Assay: xn = mol fraction of the nth substance listed
Details: 101 kPa

Compound `CCCCCC[n+]1ccn(C)c1.[I-]` + [I-].[Li+] has an electrical conductivity (288.1 K, x1 = 0.32) of 0.0025 S/m, an electrical conductivity (288.1 K, x1 = 0.59) of 0.0002 S/m and an electrical conductivity (293 K, x1 = 0.32) of 0.0046 S/m. It also gave an electrical conductivity (293 K, x1 = 0.59) of 0.0005 S/m, a viscosity (293 K, x1 = 1) of 2633 mPa·s and an electrical conductivity (298.1 K, x1 = 0.32) of 0.0086 S/m. The viscosity (298.1 K, x1 = 1) was 1742 mPa·s, the electrical conductivity (303 K, x1 = 0.32) was 0.011 S/m and the electrical conductivity (303 K, x1 = 0.59) was 0.0019 S/m. The viscosity (303 K, x1 = 0.59) was 7760 mPa·s, the electrical conductivity (308.1 K, x1 = 0.32) was 0.0189 S/m and the viscosity (308.1 K, x1 = 1) was 802 mPa·s. For the same compound, the electrical conductivity (313 K, x1 = 0.32) was 0.032 S/m, the electrical conductivity (313 K, x1 = 0.59) was 0.0054 S/m and the viscosity (313 K, x1 = 0.59) was 2420 mPa·s. For the same compound, the viscosity (313 K, x1 = 1) was 564 mPa·s, the electrical conductivity (318.1 K, x1 = 0.32) was 0.0536 S/m and the electrical conductivity (318.1 K, x1 = 0.59) was 0.0086 S/m. For the same compound, the viscosity (318.1 K, x1 = 0.59) was 1470 mPa·s, the viscosity (318.1 K, x1 = 1) was 405 mPa·s and the electrical conductivity (323 K, x1 = 0.32) was 0.0894 S/m. It also gave an electrical conductivity (323 K, x1 = 0.59) of 0.0133 S/m, a viscosity (323 K, x1 = 0.59) of 989 mPa·s and a viscosity (323 K, x1 = 1) of 279 mPa·s. The electrical conductivity (328.1 K, x1 = 0.32) was 0.145 S/m, the electrical conductivity (328.1 K, x1 = 0.59) was 0.0206 S/m and the viscosity (328.1 K, x1 = 0.59) was 682 mPa·s. The electrical conductivity (333 K, x1 = 0.59) was 0.0301 S/m, the viscosity (333 K, x1 = 0.59) was 491 mPa·s and the viscosity (333 K, x1 = 1) was 164 mPa·s. For the same compound, the electrical conductivity (338.1 K, x1 = 0.59) was 0.0428 S/m, the viscosity (338.1 K, x1 = 0.59) was 359 mPa·s and the viscosity (338.1 K, x1 = 1) was 123.6 mPa·s. The electrical conductivity (343 K, x1 = 0.32) was 0.504 S/m, the viscosity (343 K, x1 = 0.32) was 380 mPa·s and the electrical conductivity (343 K, x1 = 0.59) was 0.0601 S/m. It also gave a viscosity (343 K, x1 = 0.59) of 272 mPa·s, a viscosity (343 K, x1 = 1) of 100.4 mPa·s and an electrical conductivity (348.1 K, x1 = 0.59) of 0.082 S/m. For the same compound, the viscosity (348.1 K, x1 = 0.59) was 219 mPa·s, the viscosity (348.1 K, x1 = 1) was 79.9 mPa·s and the electrical conductivity (353 K, x1 = 0.32) was 0.842 S/m. The viscosity (353 K, x1 = 0.32) was 225 mPa·s, the electrical conductivity (353 K, x1 = 0.59) was 0.109 S/m and the viscosity (353 K, x1 = 0.59) was 179 mPa·s. For the same compound, the viscosity (353 K, x1 = 1) was 64.6 mPa·s, the electrical conductivity (358.1 K, x1 = 0.32) was 1.04 S/m and the viscosity (358.1 K, x1 = 0.32) was 177 mPa·s. The electrical conductivity (358.1 K, x1 = 0.59) was 0.142 S/m, the viscosity (358.1 K, x1 = 0.59) was 144.7 mPa·s and the viscosity (358.1 K, x1 = 1) was 52.1 mPa·s. For the same compound, the electrical conductivity (363 K, x1 = 0.32) was 1.27 S/m, the viscosity (363 K, x1 = 0.32) was 144.7 mPa·s and the electrical conductivity (363 K, x1 = 0.59) was 0.182 S/m. It also gave a viscosity (363 K, x1 = 0.59) of 119.9 mPa·s, a viscosity (363 K, x1 = 1) of 42 mPa·s and an electrical conductivity (368.1 K, x1 = 0.32) of 1.61 S/m. It also gave a viscosity (368.1 K, x1 = 0.32) of 124.1 mPa·s, an electrical conductivity (368.1 K, x1 = 0.59) of 0.232 S/m and a viscosity (368.1 K, x1 = 0.59) of 101.5 mPa·s. It also gave an electrical conductivity (373 K, x1 = 0.59) of 0.287 S/m.

From a compilation of properties of binary mixtures (doi:10.1016/j.molliq.2014.07.031)
